Columns and labels:
[1] = test system: Acute toxic hepatitis in rats induced by carbon tetrachloride (CCl4); test: Hepatoprotective activity in rats with acute toxic hepatitis induced by CCl4; type: in vivo, Wistar rats; details: 25 mg/kg; for Survivability of the animals by day 28: Wistar rats; for Body weight of the animals by the 20th day: surviving animals
Protocol: The animals were in standard housing conditions under natural light conditions, with free access to water and food. Acute toxic hepatitis in rats was induced by means of intragastric administration of 50% solution of carbon tetrachloride (CCl 4) in olive oil at a dose of 1 ml/kg for 6 days. […]
The tested preparations were administered orally in the form of a suspension in olive oil once a day after the formation of the model pathology or intravenously at a dose of 25 mg/kg. The weight dynamics of the rats were determined on Sartorius scale.

[2] = test system: patients with toxic liver damage, alcoholic hepatitis, alcoholic liver disease (fatty hepatosis), alcoholic liver cirrhosis; test: Efficacy of derivatives No. 1 and No. 2 in patients with liver disease (decrease in ALT, ASAT, GGTP); type: in vivo, patients (men and women); details: of 30 patients
Text: The study of the efficacy of derivatives No. 1 and No. 2 was additionally carried out with the participation of patients (men and women aged 25 to 60 years) with the following diagnoses: toxic liver damage, alcoholic hepatitis, alcoholic liver disease (fatty hepatosis), alcoholic liver cirrhosis.
Inclusion criteria: increased levels of alanine aminotransferase (ALT), aspartate aminotransferase (ASAT), gamma glutaminetransferase (GGTP) at least 2 times the upper limit of the normal value.
Patients of the experimental group (30 persons) adhibited derivative No. 1 in the form of capsules containing 250 mg of the drug in a total dose of 1000 mg/day.
Patients of the control group (9 persons) adhibited placebo (capsules filled with chalk).
Patients of the experimental group (30 persons) adhibited derivative No. 2 in the form of lyophilisate for IV injection containing 50 mg of the drug in a total dose of 300 mg/day.
Patients of the control group (10 persons), were administered a 0.9% solution of NaCl as a placebo.

[3] = test system: toxic hepatitis modelled by combined administration of dichloroethane and acetaminophen; test: Combined effect of subject compounds and known hepatic drugs, toxic hepatitis by dichloroethane and acetaminophen (500 and 500 mg/kg); type: in vivo; details: untreated control 10
Protocol: Also, the combined effect of the subject compounds and known drugs for the treatment of hepatic diseases was examined.
(§1) For the modeling of toxic hepatitis, the combined administration of dichloroethane and acetaminophen in doses of 500 and 500 mg/kg, respectively, was used. After 10 days all experimental animals confirmed the presence of toxic hepatitis according to the morphological pattern of the liver.

[4] = test system: toxic hepatitis modelled by combined administration of dichloroethane and acetaminophen; test: Toxic hepatitis caused by dichloroethane and acetaminophen (300 and 250 mg/kg), treatment with derivative No. 4; type: in vivo, laboratory rats; details: for Cytochrome B5 / Cytochrome P450 / Glycogen / Reduced glutathione: liver
Protocol: The efficacy of derivative No. 4 on additional parameters was studied in laboratory rats.
as §1, with “of 300” for “of 500”, “and 250” for “and 500”, “liver. In the untreated control group, by the 10th day of the study, 4 animals out of 10 died.” for “liver.”
From that time, for 10 days, the experimental animals were administered, once a day, derivative No. 4 (50 mg/kg, intragastrically in starch mucus) or derivative No. 4 (10 mg/kg, IV, into the tail vein).

[5] = capsules 250 mg, total dose 1000 mg/day, control 1 of 9
[6] = lyophilisate for IV injection, total dose 300 mg/day, control 1 of 10
[7] = Enteral administration, 50 mg/kg intragastrically once a day, day 10
[8] = Parenteral administration, 10 mg/kg IV once a day, day 10
[9] = Intraventricular administration, once a day

Compound: O=C1NC(O)(O)C(=NO)C(=O)N1c1ccc(Br)cc1 [Derivative 1, 3-(4-bromophenyl)-6,6-dihydroxy-5-hydroxyiminohexahydro-2,4-pyrimidinedione]
- Survivability of the animals by day 28 ([1]; Intravenous administration): 57%
- Body weight of the animals by the 20th day ([1]; Intravenous administration): 171 ± 5%
- Survivability of the animals by day 28 ([1]; once a day): 59%
- The number of patients in the group with a decrease in ALT by 30% or more [2, 5]: 23
- The number of patients in the group with a decrease in ASAT by 30% or more [2, 5]: 23
- The number of patients in the group with a decrease in GGTP by 30% or more ([2]; capsules 250 mg, total dose 1000 mg/day, control 2 of 9): 25
- Survivability by the 10th day [3]: 40%

Compound: O=C1NC(O)(O)C(=N[O-])C(=O)N1c1ccc(Br)cc1.[Na+] [Derivative 2]
- The number of patients in the group with a decrease in ALT by 30% or more [2, 6]: 17
- The number of patients in the group with a decrease in ASAT by 30% or more [2, 6]: 19
- The number of patients in the group with a decrease in GGTP by 30% or more ([2]; lyophilisate for IV injection, total dose 300 mg/day, control 2 of 10): 25
- Survivability by the 10th day [3]: 40%

Compound: NC(CO)(CO)CO.O=C1NC(O)(O)C(=NO)C(=O)N1c1ccc(Br)cc1 [Derivative 4]
- -SH-group [4, 7]: 900 ± 50 μmol/100 ml
- ALP [4, 7]: 0.73 ± 0.09 μkat/l
- ALT [4, 7]: 0.54 ± 0.08 μkat/l
- ASAT [4, 7]: 0.72 ± 0.06 μkat/l
- Body weight [4, 7]: 180 ± 15 g
- Bromsulfalein, at the 10th minute after the introduction [4, 7]: 19.3 ± 1.1 mg %
- Ceruloplasmin [4, 7]: 520 ± 50 mg/L
- ChE [4, 7]: 2.1 ± 0.2 µmol/g/min
- Cholesterol [4, 7]: 1.58 ± 0.21 mmol/L
- Glucose [4, 7]: 4.5 ± 0.4 mmol/L
- Hexenalum sleep [4, 7]: 27.0 ± 1.5 min
- LDH [4, 7]: 6.82 ± 0.34 mmol/h/L
- Prothrombin time [4, 7]: 43 ± 5 s
- Timole test [4, 7]: 2.86 ± 0.44 units of turbidity
- Total lipids [4, 7]: 3.2 ± 0.1 g/L
- Total protein [4, 7]: 52 ± 5 g/L
- -SH-group [4, 8]: 640 ± 50 μmol/100 ml
- ALP [4, 8]: 0.82 ± 0.12 μkat/l
- ALT [4, 8]: 0.69 ± 0.06 μkat/l
- ASAT [4, 8]: 0.76 ± 0.08 μkat/l
- Body weight [4, 8]: 185 ± 5 g
- Bromsulfalein, at the 10th minute after the introduction [4, 8]: 23.0 ± 1.6 mg %
- Ceruloplasmin [4, 8]: 580 ± 80 mg/L
- ChE [4, 8]: 2.2 ± 0.2 µmol/g/min
- Cholesterol [4, 8]: 1.70 ± 0.26 mmol/L
- Glucose [4, 8]: 4.6 ± 0.2 mmol/L
- Hexenalum sleep [4, 8]: 29.5 ± 1.5 min
- LDH [4, 8]: 8.24 ± 0.35 mmol/h/L
- Timole test [4, 8]: 3.22 ± 0.53 units of turbidity
- Total lipids [4, 8]: 2.9 ± 0.2 g/L
- Total protein [4, 8]: 48 ± 4 g/L
- Death of animals ([4]; enterally or parenterally injected, untreated control: 4 animals out of 10 died by the 10th day): not a single animal died
- Cytochrome B5 [4, 7]: 0.54 ± 0.07 mmol/mg protein ×10^−4
- Cytochrome P450 [4, 7]: 0.98 ± 0.06 mmol/mg protein ×10^−4
- Glycogen [4, 7]: 1600 ± 100 mg %
- Reduced glutathione [4, 7]: 165 ± 10 mg %
- Cytochrome B5 [4, 8]: 0.68 ± 0.04 mmol/mg protein ×10^−4
- Cytochrome P450 [4, 8]: 1.12 ± 0.03 mmol/mg protein ×10^−4
- Glycogen [4, 8]: 1500 ± 200 mg %
- Reduced glutathione [4, 8]: 170 ± 10 mg %
- Survivability by the 10th day [3]: 40%

Compound: NCCCO.O=C1NC(O)(O)C(=NO)C(=O)N1c1ccc(Br)cc1 [Derivative 5]
- Survivability of the animals by day 28 ([1]; Intravenous administration): 60%
- Body weight of the animals by the 20th day ([1]; Intravenous administration): 168 ± 7%
- Survivability of the animals by day 28 [1, 9]: 61%
- Body weight of the animals by the 20th day [1]: 161 ± 9%

Compound: C[S+](CC[C@H](N)C(=O)[O-])C[C@H]1O[C@@H](n2cnc3c(N)ncnc32)[C@H](O)[C@@H]1O (some centres unmarked) [Prototype, S-Adenosyl methionine-ademetionine, reference compound]
- Survivability of the animals by day 28 ([1]; Intravenous administration): 48%
- Body weight of the animals by the 20th day ([1]; Intravenous administration): 159 ± 4%
- Survivability of the animals by day 28 [1, 9]: 46%
- Body weight of the animals by the 20th day [1]: 160 ± 4%
- Survivability by the 10th day [3]: 30%

Compound: C[C@H](CCC(=O)O)[C@H]1CC[C@H]2[C@@H]3[C@@H](O)C[C@@H]4C[C@H](O)CC[C@]4(C)[C@H]3CC[C@]12C [Ursodeoxycholic acid, ursodeoxycholic acid, reference compound]
- Survivability by the 10th day [3]: 20%

From US10307424B2, “Drug with hepatoprotective activity” (priority 2015, dated 2019)
